Results reported in the supplement of paper PMC10307832.

Columns and labels:
Test in all cases: relative viability (nuclei count vs DMSO), 5 days (fraction); higher = more cells survive
Carboplatin + Alpelisib = compound: C1CC(C1)(C(=O)O)C(=O)O.[NH2-].[NH2-].[Pt+2] [Carboplatin] + Cc1nc(NC(=O)N2CCC[C@H]2C(N)=O)sc1-c1ccnc(C(C)(C)C(F)(F)F)c1 [Alpelisib] (partner 2 µM)
Procedure, shortened: (§1)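 Relative viability divides the nuclei count in treated wells by that in vehicle wells. Lung cancer cell lines were seeded in 1536-well plates, dosed by pin tool the next day, and fixed and stained after 5 days in one step with final 0.05% Triton X-100, 1% formaldehyde and 1 ug/ml Hoechst. Dosing was a single drug or a fixed anchor-drug dose plus five library-drug doses (not always all listed) in √10 steps, and values are medians of duplicate plates imaged at 4×.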

MLN4924 + Pictilisib = compound: NS(=O)(=O)OC[C@@H]1C[C@@H](n2ccc3c(N[C@H]4CCc5ccccc54)ncnc32)C[C@@H]1O [MLN4924] + CS(=O)(=O)N1CCN(Cc2cc3nc(-c4cccc5[nH]ncc45)nc(N4CCOCC4)c3s2)CC1 [Pictilisib] (partner 1 µM)
Procedure, shortened: as §1

GSK126 + Decitabine = compound: CC[C@H](C)N1C=C(C2=C(C=C(C=C21)C3=CN=C(C=C3)N4CCNCC4)C(=O)NCC5=C(C=C(NC5=O)C)C)C [GSK126] + Nc1ncn([C@H]2C[C@H](O)[C@@H](CO)O2)c(=O)n1 [Decitabine] (partner 2 µM)
Procedure, shortened: as §1

MLN4924 + Phenformin = compound: NS(=O)(=O)OC[C@@H]1C[C@@H](n2ccc3c(N[C@H]4CCc5ccccc54)ncnc32)C[C@@H]1O [MLN4924] + N=C(N)NC(=N)NCCc1ccccc1 [Phenformin] (partner 250 µM)
Procedure, shortened: as §1

Cell Line | relative viability (Carboplatin + Alpelisib; first compound 0.08 µM) | relative viability (Carboplatin + Alpelisib; first compound 0.253 µM) | relative viability (Carboplatin + Alpelisib; first compound 0.8 µM) | relative viability (Carboplatin + Alpelisib; first compound 2.53 µM) | relative viability (Carboplatin + Alpelisib; first compound 8 µM) | relative viability (MLN4924 + Pictilisib; first compound 0.04 µM) | relative viability (MLN4924 + Pictilisib; first compound 0.1265 µM) | relative viability (MLN4924 + Pictilisib; first compound 0.4 µM) | relative viability (MLN4924 + Pictilisib; first compound 1.265 µM) | relative viability (MLN4924 + Pictilisib; first compound 4 µM) | relative viability (GSK126 + Decitabine; first compound 0.08 µM) | relative viability (GSK126 + Decitabine; first compound 0.253 µM) | relative viability (GSK126 + Decitabine; first compound 0.8 µM) | relative viability (GSK126 + Decitabine; first compound 2.53 µM) | relative viability (GSK126 + Decitabine; first compound 8 µM) | relative viability (MLN4924 + Phenformin; first compound 0.04 µM) | relative viability (MLN4924 + Phenformin; first compound 0.1265 µM) | relative viability (MLN4924 + Phenformin; first compound 0.4 µM) | relative viability (MLN4924 + Phenformin; first compound 1.265 µM) | relative viability (MLN4924 + Phenformin; first compound 4 µM)
NCI-H1395 | 1.18 | 1.03 | 0.768 | 0.68 | 0.578 | 0.626 | 0.969 | 0.425 | 0.313 | 0.339 | 0.718 | 0.671 | 0.713 | 0.736 | 0.652 | 0.447 | 0.499 | 0.481 | 0.382 | 0.357
NCI-H2347 | 1.02 | 1.12 | 1 | 0.97 | 0.838 | 0.841 | 0.895 | 0.387 | 0.324 | 0.369 | 0.478 | 0.588 | 0.607 | 0.567 | 0.648 | 0.376 | 0.453 | 0.381 | 0.21 | 0.302
LXF-289 | 1.05 | 1.12 | 1.01 | 0.975 | 0.995 | 0.683 | 0.688 | 0.374 | 0.134 | 0.0975 | 0.38 | 0.36 | 0.395 | 0.388 | 0.374 | 0.491 | 0.41 | 0.293 | 0.163 | 0.121
EMC-BAC-2 | 0.816 | 0.719 | 0.762 | 0.734 | 0.714 | 0.242 | 0.569 | 0.213 | 0.155 | 0.192 | 1.05 | 0.974 | 0.878 | 0.893 | 0.936 | 0.37 | 0.424 | 0.296 | 0.193 | 0.218
LC-2-ad | 0.876 | 0.906 | 0.88 | 0.882 | 0.786 | 0.122 | 0.427 | 0.39 | 0.143 | 0.116 | 0.779 | 0.866 | 0.717 | 0.876 | 0.78 | 0.506 | 0.491 | 0.372 | 0.223 | 0.203
ABC-1 | 1.04 | 1.16 | 1.04 | 0.919 | 0.664 | 0.677 | 0.809 | 0.372 | 0.188 | 0.374 | 1.14 | 0.907 | 0.885 | 1 | 1 | 0.274 | 0.298 | 0.229 | 0.212 | 0.222
NCI-H647 | 1.23 | 1.14 | 1.23 | 1.12 | 0.771 | 0.318 | 0.469 | 0.274 | 0.0538 | 0.0717 | 0.445 | 0.356 | 0.484 | 0.383 | 0.437 | 0.367 | 0.348 | 0.118 | 0.0487 | 0.0541
NCI-H1734 | 0.647 | 0.757 | 0.632 | 0.67 | 0.589 | 0.568 | 0.743 | 0.29 | 0.13 | 0.154 | 0.511 | 0.517 | 0.492 | 0.515 | 0.496 | 0.339 | 0.44 | 0.229 | 0.118 | 0.122
LOU-NH91 | 0.797 | 0.731 | 0.7 | 0.688 | 0.688 | 0.53 | 0.574 | 0.515 | 0.393 | 0.434 | 0.831 | 0.813 | 0.838 | 0.793 | 0.823 | 0.6 | 0.853 | 0.763 | 0.467 | 0.425
NCI-H1793 | 0.874 | 0.645 | 0.561 | 0.751 | 0.588 | 0.322 | 0.284 | 0.273 | 0.245 | 0.121 | 0.601 | 0.423 | 0.48 | 0.567 | 0.475 | 0.292 | 0.367 | 0.313 | 0.224 | 0.183
NCI-H441 | 0.896 | 0.694 | 0.643 | 0.651 | 0.692 | 0.471 | 0.285 | 0.251 | 0.136 | 0.139 | 0.248 | 0.236 | 0.143 | 0.214 | 0.234 | 0.79 | 0.554 | 0.333 | 0.211 | 0.227
RERF-LC-KJ | 0.887 | 0.806 | 0.81 | 0.883 | 0.594 | 0.532 | 0.315 | 0.154 | 0.139 | 0.192 | 0.717 | 0.731 | 0.715 | 0.735 | 0.779 | 0.397 | 0.351 | 0.204 | 0.255 | 0.249
H3255 | 0.685 | 0.698 | 0.673 | 0.657 | 0.575 | 0.453 | 0.382 | 0.317 | 0.203 | 0.217 | 0.479 | 0.628 | 0.665 | 0.502 | 0.684 | 0.374 | 0.331 | 0.265 | 0.264 | 0.325
A-427 | 1.14 | 1.09 | 1.02 | 1.05 | 1.06 | 0.66 | 0.406 | 0.284 | 0.179 | 0.222 | 0.586 | 0.63 | 0.565 | 0.559 | 0.568 | 0.193 | 0.165 | 0.171 | 0.146 | 0.151
